Test results taken from PubChem BioAssay AID256 (DTP/NCI, 2004).
Inconclusive results and toxic doses are left out.

Tested on: CD2F1 mice, L1210 leukemia ip, survival T/C
Experiment: NCI In Vivo Anticancer Drug Screen. Data for tumor model L1210 Leukemia (intraperitoneal) in CD2F1 (CDF1) mice
Conditions: higher = longer survival
Procedure, shortened: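 Ratio T/C, where T is the treated-group value and C the vehicle-dosed control value, from mice implanted with a transplantable tumor.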

With COc1cc([C@@H]2c3cc4c(cc3[C@@H](OC3OC5COC(C)OC5C(O)C3O)[C@H]3COC(=O)[C@H]23)OCO4)cc(OC)c1O (stereo partly drawn) the T/C (endpoint: mean survival time, dose: 0.5 mg/kg/injection, schedule: Q03HX024 (ip), vehicle: saline) was 165 % of control, the T/C (endpoint: mean survival time, dose: 1.0 mg/kg/injection, schedule: Q03HX024 (ip), vehicle: saline) was 360 % of control and the T/C (endpoint: mean survival time, dose: 2.0 mg/kg/injection, schedule: Q01DX009 (ip), vehicle: saline) was 151 % of control. The T/C (endpoint: mean survival time, dose: 2.0 mg/kg/injection, schedule: Q03HX024 (ip), vehicle: saline) was 124 % of control, the T/C (endpoint: mean survival time, dose: 4.0 mg/kg/injection, schedule: Q01DX009 (ip), vehicle: saline) was 246 % of control and the T/C (endpoint: mean survival time, dose: 8.0 mg/kg/injection, schedule: Q01DX009 (ip), vehicle: saline) was 111 % of control. For the same compound, the T/C (endpoint: mean survival time, dose: 8.0 mg/kg/injection, schedule: Q04DX003 (ip), vehicle: saline) was 181 % of control, the T/C (endpoint: mean survival time, dose: 16.0 mg/kg/injection, schedule: Q01DX009 (ip), vehicle: saline) was 87 % of control and the T/C (endpoint: mean survival time, dose: 16.0 mg/kg/injection, schedule: Q04DX003 (ip), vehicle: saline) was 289 % of control. For the same compound, the T/C (endpoint: mean survival time, dose: 32.0 mg/kg/injection, schedule: Q04DX003 (ip), vehicle: saline) was 542 % of control, the T/C (endpoint: median survival time, dose: 1.0 mg/kg/injection, schedule: Q03HX008 (ip), vehicle: other) was 162 % of control and the T/C (endpoint: median survival time, dose: 1.0 mg/kg/injection, schedule: Q03HX016 (ip), vehicle: other) was 175 % of control. The T/C (endpoint: median survival time, dose: 1.0 mg/kg/injection, schedule: Q03HX024 (ip), vehicle: other) was 218 % of control, the T/C (endpoint: median survival time, dose: 2.0 mg/kg/injection, schedule: Q01DX009 (ip), vehicle: other) was 175 % of control and the T/C (endpoint: median survival time, dose: 2.0 mg/kg/injection, schedule: Q01DX009 (ip), vehicle: saline) was 152 % of control. The T/C (endpoint: median survival time, dose: 2.0 mg/kg/injection, schedule: Q01DX009 (sc), vehicle: other) was 150 % of control, the T/C (endpoint: median survival time, dose: 2.0 mg/kg/injection, schedule: Q03HX008 (ip), vehicle: other) was 175 % of control and the T/C (endpoint: median survival time, dose: 2.0 mg/kg/injection, schedule: Q03HX016 (ip), vehicle: other) was 212 % of control. For the same compound, the T/C (endpoint: median survival time, dose: 2.0 mg/kg/injection, schedule: Q03HX024 (ip), vehicle: other) was 206 % of control, the T/C (endpoint: median survival time, dose: 4.0 mg/kg/injection, schedule: Q01DX009 (ip), vehicle: other) was 218 % of control and the T/C (endpoint: median survival time, dose: 4.0 mg/kg/injection, schedule: Q01DX009 (ip), vehicle: saline) was 195 % of control. The T/C (endpoint: median survival time, dose: 4.0 mg/kg/injection, schedule: Q01DX009 (oral), vehicle: Klucel (hydroxypropylcellulose) (HPC)) was 105 % of control, the T/C (endpoint: median survival time, dose: 4.0 mg/kg/injection, schedule: Q01DX009 (sc), vehicle: other) was 168 % of control and the T/C (endpoint: median survival time, dose: 4.0 mg/kg/injection, schedule: Q03HX008 (ip), vehicle: other) was 181 % of control. For the same compound, the T/C (endpoint: median survival time, dose: 4.0 mg/kg/injection, schedule: Q03HX008 (oral), vehicle: Klucel (hydroxypropylcellulose) (HPC)) was 111 % of control, the T/C (endpoint: median survival time, dose: 4.0 mg/kg/injection, schedule: Q03HX016 (ip), vehicle: other) was 187 % of control and the T/C (endpoint: median survival time, dose: 4.0 mg/kg/injection, schedule: Q03HX016 (oral), vehicle: Klucel (hydroxypropylcellulose) (HPC)) was 100 % of control. The T/C (endpoint: median survival time, dose: 4.0 mg/kg/injection, schedule: Q03HX024 (ip), vehicle: other) was 118 % of control, the T/C (endpoint: median survival time, dose: 4.0 mg/kg/injection, schedule: Q03HX024 (oral), vehicle: Klucel (hydroxypropylcellulose) (HPC)) was 88 % of control and the T/C (endpoint: median survival time, dose: 8.0 mg/kg/injection, schedule: Q01DX001 (ip), vehicle: other) was 162 % of control. The T/C (endpoint: median survival time, dose: 8.0 mg/kg/injection, schedule: Q01DX001 (sc), vehicle: other) was 112 % of control, the T/C (endpoint: median survival time, dose: 8.0 mg/kg/injection, schedule: Q01DX009 (ip), vehicle: saline) was 220 % of control and the T/C (endpoint: median survival time, dose: 8.0 mg/kg/injection, schedule: Q01DX009 (oral), vehicle: Klucel (hydroxypropylcellulose) (HPC)) was 116 % of control. The T/C (endpoint: median survival time, dose: 8.0 mg/kg/injection, schedule: Q01DX009 (sc), vehicle: other) was 118 % of control, the T/C (endpoint: median survival time, dose: 8.0 mg/kg/injection, schedule: Q03HX008 (ip), vehicle: other) was 87 % of control and the T/C (endpoint: median survival time, dose: 8.0 mg/kg/injection, schedule: Q03HX008 (oral), vehicle: Klucel (hydroxypropylcellulose) (HPC)) was 122 % of control. The T/C (endpoint: median survival time, dose: 8.0 mg/kg/injection, schedule: Q03HX016 (oral), vehicle: Klucel (hydroxypropylcellulose) (HPC)) was 100 % of control, the T/C (endpoint: median survival time, dose: 8.0 mg/kg/injection, schedule: Q03HX024 (ip), vehicle: other) was 112 % of control and the T/C (endpoint: median survival time, dose: 8.0 mg/kg/injection, schedule: Q03HX024 (oral), vehicle: Klucel (hydroxypropylcellulose) (HPC)) was 88 % of control. For the same compound, the T/C (endpoint: median survival time, dose: 8.0 mg/kg/injection, schedule: Q04DX003 (ip), vehicle: other) was 193 % of control, the T/C (endpoint: median survival time, dose: 8.0 mg/kg/injection, schedule: Q08DX002 (ip), vehicle: other) was 168 % of control and the T/C (endpoint: median survival time, dose: 16.0 mg/kg/injection, schedule: Q01DX001 (ip), vehicle: other) was 162 % of control. For the same compound, the T/C (endpoint: median survival time, dose: 16.0 mg/kg/injection, schedule: Q01DX009 (ip), vehicle: other) was 100 % of control, the T/C (endpoint: median survival time, dose: 16.0 mg/kg/injection, schedule: Q01DX009 (oral), vehicle: Klucel (hydroxypropylcellulose) (HPC)) was 122 % of control and the T/C (endpoint: median survival time, dose: 16.0 mg/kg/injection, schedule: Q01DX009 (sc), vehicle: other) was 93 % of control. The T/C (endpoint: median survival time, dose: 16.0 mg/kg/injection, schedule: Q03HX008 (oral), vehicle: Klucel (hydroxypropylcellulose) (HPC)) was 111 % of control, the T/C (endpoint: median survival time, dose: 16.0 mg/kg/injection, schedule: Q03HX016 (oral), vehicle: Klucel (hydroxypropylcellulose) (HPC)) was 111 % of control and the T/C (endpoint: median survival time, dose: 16.0 mg/kg/injection, schedule: Q03HX024 (oral), vehicle: Klucel (hydroxypropylcellulose) (HPC)) was 94 % of control.
